Patent US20140163082A1, “PYRAZOLYL COMPOUNDS FOR USE IN REVERSING REACTIVE GLIOSIS” (priority 2011, published 2014)

What was measured:
R28 cells = experiment: GFAP immunofluorescence, R28; assay type: cell-based, rat; settings: for GFAP protein expression (immunofluorescence): vs hypoxic controls
Method: Cells were placed in airtight chambers [BioSpherix, Redfield, N.Y.] and the O2 tension was maintained at 1.2% by using Pro-Ox Model 110 O2 regulator [BioSpherix, Redfield, N.Y.]. The chamber was purged with a gas mixture of 5.32% CO2, and 93.48% N2. […] Müller cells [rMC-1] and […] cells [2×10^4 cells per well] were grown on 8-well chamber slides and cultured in 300 μl of their growing media, which contained YC-1 [25-100 μM] or DMSO [0.2% v/v] and incubated under normoxia or hypoxia for 48 hours at 37° C. YC-1 or DMSO was added 5 minutes prior to the hypoxic incubation. The cells were fixed 48 hours later with 3.7% paraformaldehyde and permeabilized with 0.2% TritonTM X-100 in PBS. The cells were incubated for two hours with anti-GFAP antibody. Negative control experiments consisted of omission of the primary antibody. Cells were then incubated with HRP-conjugate working solution, followed by the addition of the […] solution [TSA Kit#2 and #4 for rMC-1 and […] staining, respectively] at 1:100 dilutions [Molecular Probes, Carlsbad, Calif.]. Digitized images were acquired utilizing AxioVision software [Zeiss Axiovert 135 and AxioCam]. Intensity values of immunofluorescence staining of GFAP in rMC-1 and […] cells was analyzed and quantified using MetamorphTM imaging analysis software version 6.0 [Universal Imaging, Sunnyvale, Calif.]. The staining intensity in our series ranged from a weak blush to moderate or strong. The amount of cells staining with the antibody was further categorized as focal [<10%], patchy [10%-50%], and diffuse [>50%]. For semiquantitative analysis, focal and/or weak staining was considered equivocal staining, and patchy or diffuse staining was subcategorized as either moderate or strong.

[1] = system: preretinal NV in OIR mouse model; experiment: Quantification of preretinal NV (H&E sections), OIR mouse model; assay type: in vivo, C57BL/6J mice; settings: OIR mice, double intravitreal injection YC-1 100 μM, P17, n=8; DMSO 61
Method: Retinal NV was induced in newborn mice as described previously. Briefly, P7 mice were exposed with their nursing mother, for 5 days [between P7 and P12] to hyperoxic conditions, by incubating them in an airtight chamber [PROOX 110 chamber O2 controller; Biospherix Ltd., Redfield, N.Y.] ventilated by a mixture of O2 and air to a final oxygen fraction of 75±2%. These incubation conditions induced vaso-obliteration and subsequent cessation of vascular development in the capillary beds of the central retina. At P12, the mice were allowed to recover in normal room air conditions and maintained for another 5 days [till P17], the day in which peak disease occurs. A condition of relative hypoxia resulted between P12 and P17, and extensive retinal NV developed in 100% of the mice. […]
Quantification of preretinal NV on P17 mice was performed as previously described. Briefly, 6-μm-thick serial sections were stained with hematoxylin and Eosin (H&E), then examined and scored in masked fashion for the presence of all nuclei extending beyond the ILM into the vitreous from the retina, by using light microscopy (Zeiss Axiovert 135, Thornwood, N.Y.). Efficacy of treatment was calculated as the percentage of the average number of nuclei/section in the eyes of YC-1-treated mice vs. DMSO-treated retinas. A minimum of 10 sections at least 40 μm apart were evaluated and counted per eye and then averaged. […]

ischemic retinas = experiment: Real time RT-PCR analysis, in vivo (OIR retinas); design: species or system C57BL/6J mice; settings: OIR mice
From the text: mRNA levels for HIF-1, VEGF, PDGF-B, GFAP and iNOS were quantified by Real time RTPCR. We used the primers summarized in [FIG. 6C] for RT-PCR. Gene-specific molecular beacons and primers were designed to encompass the genes of interest, with beacon's annealing site to overlap with the exon-exon junctions for additional specificity [Beacon Designer 6.0, Premier Biosoft International, Palo Alto, Calif., USA]. Threshold cycle [Ct] values for the different samples were utilized for the calculation of gene expression fold change using the formula 2 to the minus power of delta delta ct. Fold changes in the HIF-1, VEGF, PDGF-B, GFAP and iNOS gene relative to the β-actin endogenous control gene were determined by the following equation: fold change=2−Δ[ΔC T], where change in threshold cycle [ΔCT]=CT [gene of interest]−CT [β-actin] and Δ [ΔCT]=ΔCT [treated]−ΔCT [untreated].
Retinal NV was induced in newborn mice as described previously. Briefly, P7 mice were exposed with their nursing mother, for 5 days [between P7 and P12] to hyperoxic conditions, by incubating them in an airtight chamber [PROOX 110 chamber O2 controller; Biospherix Ltd., Redfield, N.Y.] ventilated by a mixture of O2 and air to a final oxygen fraction of 75±2%. These incubation conditions induced vaso-obliteration and subsequent cessation of vascular development in the capillary beds of the central retina. At P12, the mice were allowed to recover in normal room air conditions and maintained for another 5 days [till P17], the day in which peak disease occurs. A condition of relative hypoxia resulted between P12 and P17, and extensive retinal NV developed in 100% of the mice. Age-matched animals with the hyperoxia-exposed groups were maintained identically, except they were exposed to room air […], 79% N2] for the entire duration of the experiment. All animals were examined and sacrificed on the same days.
A group of hyperoxia-exposed animals [n=15] were injected intravitreally [into both eyes] at P12 and P15 with 3 μl of YC-1 [100 μM] [drug-treated group]. Another group of hyperoxiaexposed mice [n=15] were injected intravitreally [into both eyes] at P12 and P15 with 3 μl of DMSO [0.2% [v/v]] [mock-treated group]. Non-treated mice grown under ambient conditions, non-treated hyperoxia-exposed mice, DMSO-treated hyperoxia-exposed mice and YC-1-treated hyperoxia-exposed mice, were all examined at different critical time points for qualitative assessment of the retinal vasculature by fluorescein angiography.

endothelial tip cells = experiment: Filopodia number and length on endothelial tip cells, OIR mouse model; assay type: in vivo, C57BL/6J mice; settings: OIR mice injected with YC-1 [25-100 μl], vs DMSO-treated retinas
Method: FIG. 4 the Influence of YC-1 on filopodia number and length. […] Image of tip cells along the leading edge of vascularization from; [A] Non-treated ischemic retinas; [B] DMSO-treated retinas; [C, D, E, and F] represent retinas from animals that were injected with YC-1 [25-100 μl]. Filopodia lengths and number/tip cell were not influenced by DMSO treatment. […] [n=5 per group].
A. Filopodia from DMSO-treated retinas had approximately similar lengths as the nontreated ischemic retinas. […] [ANOVA, ***P<0.001; **P<0.01 between YC-1 and DMSO]. There were 24 tip cells/retina that were averaged. [n=5 per group].
B. DMSO has no influence on the number of filopodia/tip cell. […] [ANOVA, ***P<0.001; **P<0.01 between YC-1 and DMSO]. There were 24 tip cells/retina that were averaged. [n=5 per group].
Retinal NV was induced in newborn mice as described previously. Briefly, P7 mice were exposed with their nursing mother, for 5 days [between P7 and P12] to hyperoxic conditions, by incubating them in an airtight chamber [PROOX 110 chamber O2 controller; Biospherix Ltd., Redfield, N.Y.] ventilated by a mixture of O2 and air to a final oxygen fraction of 75±2%. These incubation conditions induced vaso-obliteration and subsequent cessation of vascular development in the capillary beds of the central retina. […]

[2] = R28, 25 μM YC-1, hypoxia 48 hours
[3] = 100 μM YC-1, vs DMSO-treated retinas

In the case of `OCc1ccc(-c2nn(Cc3ccccc3)c3ccccc23)o1` [YC-1, 3-(5′-hydroxymethyl-2′-furyl)-1-benzylindazole], the “GFAP cytoplasmic staining pattern/intensity (immunofluorescence)” value (R28 cells; [2]) was “stronger diffuse cytoplasmic GFAP staining”, the “GFAP staining vs DMSO-treated hypoxic controls (immunofluorescence)” value (R28 cells; [2]) was “remarkable inhibition” and the “GFAP protein expression (immunofluorescence)” value (R28 cells; R28, 50 μM YC-1, hypoxia) was “significant inhibitory effects”. For the same compound, the “GFAP protein expression (immunofluorescence)” value (R28 cells; R28, 75 μM YC-1, hypoxia) was “significant inhibitory effects”, the “GFAP staining remaining in cytoplasm (immunofluorescence)” value (R28 cells; R28, 100 μM YC-1, hypoxia) was “few stained regions” and the “GFAP protein levels (quantified staining intensity, FIG. 11C)” value (R28 cells; R28, hypoxia, dose-dependent fashion) was “significantly reduced”. The “average number of neovascular nuclei (pre-retinal, anterior to ILM)” value [1] was 11±1.8, the “PDGF-B message (mRNA) level in retina” value (ischemic retinas; [3]) was “significantly attenuated” and the “VEGF message (mRNA) level in retina” value (ischemic retinas; [3]) was “significantly attenuated”. For the same compound, the “iNOS message (mRNA) level in retina” value (ischemic retinas; [3]) was “significantly attenuated”, the “HIF-1α message (mRNA) level in retinal tissue” value (ischemic retinas; YC-1) was “did not have any influence” and the “GFAP message (mRNA) level in retina” value (ischemic retinas; YC-1 dual injection, vs DMSO, normalized to β-actin) was “significantly attenuated”. For the same compound, the “number of filopodia on endothelial tip cells” value (endothelial tip cells) was “significantly and dose-dependently reduced” and the “total length of filopodia on endothelial tip cells” value (endothelial tip cells) was “significantly and dose-dependently reduced”.
